Results as given in patent US5225607A, “Insecticidal ethers” (Imperial Chemical Industries PLC, priority 1985, dated 1993).

How the values were obtained:
Assay type in all cases: in vivo
Tetranychus urticae = assay: Insecticidal/acaricidal test, Tetranychus urticae (spider mites - adult), contact; conditions: 72 h, French bean leaf, 3 days, read-out: grading of mortality, TU
In short: (§1)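 Product applied at 500, 250 or 100 ppm as acetone solution diluted in water with 0.01% Lissapol NX wetting agent, onto pests and/or their host plant or food medium. Mortality or knockdown scored 1–3 days after treatment and graded A (80–100%; 70–100% for S. exigua), B (50–79%; 50–69% for S. exigua) or C (<50%).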

Myzus persicae = assay: Insecticidal test, Myzus persicae (aphids), contact; conditions: 72 h, Chinese Cabbage leaf, 3 days, read-out: grading of mortality, MP
In short: as §1

Nilaparvata lugens = assay: Insecticidal test, Nilaparvata lugens (brown planthopper), contact; conditions: 72 h, Cabbage leaf, 3 days, read-out: grading of mortality, NL
In short: as §1

Musca domestica [1] = assay: Knockdown test, Musca domestica (houseflies - adults); conditions: cotton wool/sugar, 4 hours, read-out: grading of knockdown, MD/KD
In short: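 Knockdown scores were banded: A 80–100%, B 50–79%, C <50%. Test preparations of 500, 250 or 100 ppm compound were made in acetone, then diluted with water containing 0.01% Lissapol NX, and applied to Musca domestica adults.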

Musca domestica [2] = assay: Insecticidal test, Musca domestica (houseflies - adults), contact; conditions: 24 h, cotton wool/sugar, 1 day, read-out: grading of mortality, MD
In short: as §1

Blattella germanica = assay: Insecticidal test, Blattella germanica (cockroach nymphs), residual; conditions: 72 h, plastic pot, 3 days, read-out: grading of mortality, BG
In short: as §1

Heliothis virescens = assay: whole plant or invertebrate; conditions: in Gossypium hirsutum, 72 h, read-out: grading of mortality, HV
In short: as §1

Spodoptera exigua = assay: Insecticidal test, Spodoptera exigua (lesser armyworm), residual; conditions: 72 h, cotton leaf, 3 days, read-out: grading of mortality, SE
Experimental: The activity of the Product was determined using a variety of insect and acarine pests. The Product was used in the form of liquid preparations containing 500, 250 or 100 parts per million (ppm) by weight of the Product. The preparations were made by dissolving the Product in acetone and diluting the solutions with water containing 0.01% by weight of a wetting agent sold under the trade name "LISSAPOL" NX until the liquid preparations contained the required concentratio of the Product. "Lissapol" is a Registered Trade Mark.
The test procedure adopted with regard to each pest was basically the same and comprised supporting a number of the pests on a medium which was usually a host plant or a foodstuff on which the pests feed, and treating either or both the pests and the medium with the preparations. The mortality of the pests was then assessed at periods usually varying from one to three days after the treatment.
The results of the tests are given in Table IV for each of the Products, at the rate in parts per million given in the second column as a grading of mortality designated as A, B or C wherein A indicates 80-100% mortality or knockdown (70-100% in the case of Spodoptera exigua), B indicates 50-79% mortality or knockdown (50-69% in the case of Spodoptera exigua) and C indicates less than 50% mortality or knockdown.
In Table IV the pest organism used is designated by a letter code and the pest species, the support medium or food, and the type and duration of test is given in Table III.

Diabrotica balteata = assay: Insecticidal test, Diabrotica balteata (rootworm larvae), residual; conditions: 72 h, filter paper/maize seed, 3 days, read-out: grading of mortality, DB
In short: as §1

Compound	mortality at 100 ppm (Tetranychus urticae)	mortality at 100 ppm (Myzus persicae)	mortality at 100 ppm (Nilaparvata lugens)	pest or weed control at 100 ppm (Musca domestica [1])	mortality at 100 ppm (Musca domestica [2])	mortality at 100 ppm (Blattella germanica)	mortality at 100 ppm (Heliothis virescens)	mortality at 100 ppm (Spodoptera exigua)	mortality at 100 ppm (Diabrotica balteata)	mortality at 500 ppm (Tetranychus urticae)	mortality at 500 ppm (Myzus persicae)	mortality at 500 ppm (Nilaparvata lugens)	pest or weed control at 500 ppm (Musca domestica [1])	mortality at 500 ppm (Musca domestica [2])	mortality at 500 ppm (Blattella germanica)	mortality at 500 ppm (Heliothis virescens)	mortality at 500 ppm (Spodoptera exigua)	mortality at 500 ppm (Diabrotica balteata)
COCc1ccc(C(COCc2cccc(Oc3ccccc3)c2)C(F)(F)F)cc1 (stereo not drawn) [Compound 24, 1,1,1-Trifluoro-2-(4-methoxymethylphenyl)-3-(3-phenoxybenzyloxy)propane]	< 50%	80 to 100%	80 to 100%	80 to 100%	80 to 100%	80 to 100%	50 to 79%	70 to 100%	80 to 100%	–	–	–	–	–	–	–	–	–
Fc1ccc(COCC(c2ccc(OC(F)(F)F)cc2)C(F)(F)F)cc1Oc1ccccc1 (stereo not drawn) [Compound 25, 1,1,1-Trifluoro-2-(4-trifluoromethoxyphenyl)-3-(3-phenoxy-4-fluorobenzyloxy)propane]	80 to 100%	80 to 100%	80 to 100%	80 to 100%	80 to 100%	80 to 100%	80 to 100%	70 to 100%	80 to 100%	–	–	–	–	–	–	–	–	–
FC(F)(F)Oc1ccc(C(COCc2cccc(Oc3ccccc3)n2)C(F)(F)F)cc1 (stereo not drawn) [Compound 28, 1,1,1-Trifluoro-2-(4-trifluoromethoxyphenyl)-3-(6-phenoxy-2-pyridylmethyloxy)propane]	< 50%	80 to 100%	80 to 100%	80 to 100%	80 to 100%	80 to 100%	80 to 100%	70 to 100%	80 to 100%	–	–	–	–	–	–	–	–	–
FC(F)(F)C(COCc1cccc(Oc2ccccc2)c1)c1ccc2c(c1)OCO2 (stereo not drawn) [Compound 31, 1,1,1-Trifluoro-2-(3,4-methylenedioxyphenyl)-3-(3-phenoxybenzyloxy)propane]	–	–	–	–	–	–	–	–	–	< 50%	80 to 100%	80 to 100%	80 to 100%	80 to 100%	80 to 100%	80 to 100%	70 to 100%	80 to 100%
FC(F)(F)C(COCc1cccc(Oc2ccc(Cl)cc2)c1)c1ccc2c(c1)OCO2 (stereo not drawn) [Compound 32, 1,1,1-Trifluoro-2-(3,4-methylenedioxyphenyl)-3-(3-(4-chlorophenoxy)benzyloxy)propane]	–	–	–	–	–	–	–	–	–	< 50%	50 to 79%	80 to 100%	80 to 100%	80 to 100%	50 to 79%	80 to 100%	70 to 100%	80 to 100%
Fc1ccc(C(Cl)(COCc2ccc(F)c(Oc3ccccc3)c2)C(F)(F)F)cc1 (stereo not drawn) [Compound 51, 1,1,1-Trifluoro-2-chloro-2-(4-fluorophenyl)-3-(3-phenoxy-4-fluorobenzyloxy)propane]	< 50%	< 50%	50 to 79%	< 50%	< 50%	< 50%	80 to 100%	70 to 100%	80 to 100%	–	–	–	–	–	–	–	–	–
FC(F)(F)Oc1ccc(C(Cl)(COCc2cccc(Oc3ccc(Cl)cc3)c2)C(F)(F)F)cc1 (stereo not drawn) [Compound 60, 1,1,1-Trifluoro-2-chloro-2-(4-trifluoromethoxyphenyl)-3-(3-(4-chlorophenoxy)benzyloxy)propane]	< 50%	50 to 79%	80 to 100%	< 50%	< 50%	80 to 100%	80 to 100%	70 to 100%	< 50%	–	–	–	–	–	–	–	–	–
FC(F)(F)Oc1ccc(C(Cl)(COCc2cccc(Oc3ccccc3)n2)C(F)(F)F)cc1 (stereo not drawn) [Compound 61]	80 to 100%	80 to 100%	80 to 100%	80 to 100%	80 to 100%	80 to 100%	80 to 100%	70 to 100%	80 to 100%	–	–	–	–	–	–	–	–	–
